Results on 92 compounds are retold here after a melting point compilation (Tetko et al.; mined from patent text by program, amines drawn as free bases though some values may be those of a salt).

A word on the melting point: it is the temperature of the solid-liquid transition. Regarding `CS(=O)(=O)c1nnc(F)s1`, the melting point was 65 °C.
The result for `OCC/C(CCCCCCCCS)=C(\CCO)CCCCCCCCS` reads 67.4 to 68.2 °C.
Then `COCOc1ccc(OCc2ccccc2)c(CBr)c1`, with 55 to 57 °C; and `CSc1sc(C(=O)O)c2c1-c1nc(C)sc1CC2`, with 273 to 274 °C.
Then `CCCN(CCC)CCOc1ccc(Cn2c(-c3ccc(O)cc3)c(C)c3cc(O)ccc32)cc1`, with 83 to 86 °C; and `Nc1c(-c2ccccc2O)c2ccccc2[nH]c1=O`, with 235 to 237 °C; and `COc1cc2c(cc1OC)C(c1ccc([N+](=O)[O-])c(C)c1)=NN(c1noc(=O)[nH]1)[C@H](C)C2`, with 221 to 223 °C.
Regarding `COc1ccc2c(c1)CC(C(=O)O)O2` (racemic), the melting point was in the range of 98 to 100 °C.
The result for `CON=C(C#N)C(=O)NC(=O)NCCCCCC(=O)OC` reads 91 °C.
Then `CCCOc1ccccc1-c1nc2cc3ncn(CC)c3cc2c(=O)[nH]1`, with 212 to 214 °C.
Consider `O=C(COc1ccc(Cl)cc1)N1Cc2cccn2Cc2ccccc21`, for which the melting point was in the range of 120 to 122 °C.
The result for `Cc1ccc(S(=O)(=O)Nc2ccc([N+](=O)[O-])cc2C#N)cc1` reads 166 to 167 °C; that for `Cn1c(=O)n(C)c2cc(C(=O)CSCCC(=O)O)c(Cl)cc21`, 148 to 150 °C; that for `Cc1cc(C)c(-c2cn(C)c3nc(N(C)C)n(C)c(=O)c23)c(C)c1`, 127 to 128 °C.
Then `COc1ccc2c(c1)cc(-c1nnn(Cc3cccc(OCc4ccc5ccccc5n4)c3)n1)c(=O)n2C`, with 125 to 127 °C; and `CC(C)CCCc1c(C(C)C)nc(C(C)C)c(CO)c1-c1ccc(F)cc1`, with 101 to 103 °C.
Then `COc1cc2c(Cl)c(C#N)cnc2cc1F`, with 160 to 162 °C; and `CCN1CN(c2cccc(C(F)(F)F)c2)c2ncccc2C1=O`, with 108 to 109 °C.
`CC(C(O)=S)c1sc(S(N)(=O)=O)cc1[N+](=O)[O-]` (configuration not stated): the melting point was in the range of 154 to 155 °C.
Then `Cc1ccc2c3c(ccc2n1)OCC(CN1CC=C(c2c[nH]c4c(F)cccc24)CC1)O3` (configuration not stated), with 205 to 210 °C; and `O=c1[nH]c2cc(Cl)cc(Cl)c2c(=O)n1CCc1ccccc1`, with 230 to 232 °C; and `CN(C)c1nc(-c2ccc(Cl)cc2)c(CCC(=O)O)o1`, with 189 to 190 °C.
Then `CCOC(=O)c1ccc(C(=O)Sc2cccn3c(=O)c(C(=O)OCC)cnc23)cc1`, with 146 to 148 °C; and `COC(=O)c1ccc(Cl)cc1NC(=O)Cc1ccsc1`, with 96 to 97 °C; and `COc1ccc(Cl)cc1C1(O)C(=O)Nc2ccc(Br)cc21` (configuration not stated), with 245 to 247 °C.
`CCc1c(-c2ccc(OCc3ccccc3)cc2)c2cc(CO)c3cccc1n32` registered a melting point of 148 to 150 °C.
The result for `CCCC1=C(c2ccc(F)cc2)C(=NO)CC1` reads 165 to 166 °C; that for `O=c1ccc2c(-c3ccncc3)nccc2[nH]1`, over 300 °C; that for `O=C(NNC(=O)C(F)(F)F)c1ccccc1`, 153 to 154 °C.
The result for `C=C(c1ccc(F)cc1)c1ccccc1Cl` reads 73 to 74 °C; that for `CC(C)Cn1c(C(C)O)nc2c(N)nc3ccccc3c21` (configuration not stated), 145 to 149 °C; that for `N#Cc1ccc(OCCCCCOc2ccc(-c3cc4cc(C#N)ccc4o3)cc2)cc1`, 163 to 166 °C.
The result for `O=c1ccc2c(-n3cccn3)nccc2[nH]1` reads over 300 °C; that for `O=C(O)CN1C(=O)COc2cc(F)c([N+](=O)[O-])cc21`, 177 to 183 °C; that for `CCCN(C)c1nn(C)c(=O)c2c1ccn2-c1c(C)cc(C)cc1C`, 105 to 108 °C.
`CCS(=O)(=O)CCC(=O)NNC(=O)N1Cc2ccccc2Oc2ccc(O)cc21` yielded a melting point of 191 to 194 °C.
`O=C(O)c1cc(NC(=O)C(CS)Cc2cccnc2)cs1` (configuration not stated) yielded a melting point of 115 to 118 °C.
The result for `CCOC(=O)c1cc(CN)c[nH]1` reads 78 to 79 °C; that for `COc1ccc(Cn2ccnc2)cc1`, 157 to 159 °C; that for `Cc1oc(-c2ccccc2)nc1COc1ccc(C=C2SC(=O)NC2=O)cc1`, 225 to 226 °C.
Then `Cn1ccc2c1CC(c1ccccc1)CC2=O` (configuration not stated), with 166 to 167 °C; and `CC(=O)Oc1ccc([C@@H]2SC(C)(C)[C@H](C(=O)O)N2C(C)=O)cc1`, with 199 to 201 °C.
Then `CCO[C@@H]1c2ccn3c(C)c(C)nc3c2N[C@H](c2ccccc2)[C@H]1O`, with 143 to 144 °C; and `CC(C)(C)OC(=O)NCCCc1ccccc1C=CC(=O)O`, with 122 to 126 °C.
For the compound `CC1(C)CC(OC(=O)CCCCCCCCC(=O)OC2CC(C)(C)N(OC3CCCCC3)C(C)(C)C2)CC(C)(C)N1OC1CCCCC1`, the melting point lay in the range of 56 to 59 °C.
For `C(=Cc1ccc(-c2ccccc2)cc1)c1ccccc1`, the melting point stood at 224 °C.
The result for `O=C1c2ccccc2C(=O)N1Cc1ncc(C(F)(F)F)cc1Cl` reads 145 to 146 °C.
The result for `Nc1ccnc(CSCCO)n1` reads 131 to 134 °C; that for `CC(C)(C)OC(=O)Nc1ccc(C#Cc2ccc(OC(F)(F)F)cc2)cc1N`, 167 to 169 °C.
The result for `COCOc1ccc(C(=O)CI)c(OCc2ccccc2)c1` reads 66 to 68 °C.
As for `COC(=O)c1cc(C#N)c2cc(Cc3ccc(F)cc3)cnc2c1O`, the melting point was 178 to 179 °C.
With `Cc1c(C(=O)c2cccs2)cccc1C(C)C(=O)O` (configuration not stated), the melting point worked out at 100 °C.
The result for `COC(C(=O)O)c1ccc2nc(-c3ccc(Cl)cc3)oc2c1` (configuration not stated) reads 164 to 166 °C; that for `[N-]=[N+]=NC(=O)c1cn(C2CCN(Cc3ccccc3)C2)nn1` (configuration not stated), 160 °C.
Then `COC(=O)Cc1c(O)ncnc1O`, with over 200 °C; and `Fc1cc(F)cc(N2c3ccccc3Sc3ccccc32)c1`, with 111 to 115 °C.
Then `CCOC(=O)C(C1c2ccccc2Sc2ccccc21)[N+](=O)[O-]` (configuration not stated), with 111 to 115 °C; and `COc1ccc(C2CCc3cc(CC(=O)O)cc(Cl)c3N2)cc1` (configuration not stated), with 140 to 141 °C.
In turn, `CC1CC(=O)NN=C1c1ccc(NC(=O)C2(C)CC2)cc1` (configuration not stated) had a melting point of 235 to 237 °C.
`CCN(CC)CCNC(=O)c1cc(Cl)c(N)cc1OCC(C)=O` yielded a melting point of 105 to 106 °C.
The result for `NC(=O)C1=C(O)C(NC(=S)c2ccccc2)C2CC3Sc4c(Cl)ccc(O)c4C(=O)C3=C(O)C2(O)C1=O` (configuration not stated) reads 222 °C; that for `Cc1cc(-c2nc3cccnn3c2-c2ccnc(NC(=O)c3ccncc3)c2)ccc1F`, 219 to 220 °C.
The result for `COc1cccc(CCc2cc(C(C)(C)C)c(O)c(C(C)(C)C)c2)c1NC(=O)NC1CCN(Cc2ccccc2)CC1` reads 184 to 185 °C.
Take `CC(=O)c1ccc(NS(=O)(=O)c2ccc3c(c2)-c2c(nc(C)[nH]c2=O)CC3)cc1`: the melting point is over 240 °C.
Then `NC(=O)Nc1nc2n(n1)CCc1ccccc1-2`, with 210 to 212 °C; and `CC(C)NC(=S)NCc1c(Cl)ccc(C(=O)O)c1Cl`, with over 220 °C; and `COc1cc(OC)c2c(=O)[nH]c(-c3ccc(O)cc3)cc2c1`, with 245 to 247 °C.
Then `COC(=O)c1ccc(NC(C)=O)c(C=NO)c1`, with 200 to 203 °C; and `CCOC(=O)C1(NS(=O)(=O)c2ccc3c(Cl)cnc(NC(=N)N)c3c2)CCC1`, with 165 to 169 °C.
Then `CCOC(=O)c1cn(-c2nnc(C)s2)cn1`, with 121 to 122 °C.
`CC(=O)C1=CC(C)(C)C=CC1` yielded a melting point of 27 to 30 °C.
Then `O=C(Nc1cccc(C(=O)O)c1)NC1C(=O)N(CC(=O)N2CCCC2)c2ccccc2N(C2CCCCC2)C1=O` (configuration not stated), with 275 to 276 °C; and `CC(C)C(C)(C)N1N=C([O-])O[NH2+]1`, with 38 °C.
Compound `CC(=O)c1cc(NC(=O)NCCCC(C)CNC(=O)Nc2cc(C(C)=O)cc(C(C)=O)c2)cc(C(C)=O)c1` (configuration not stated) yielded a melting point of 128 °C.
Compound `O=C(O)c1cnn2ccc(-c3ccc(Cl)cc3)nc12` showed a melting point of 309 to 311 °C.
Then `CCOCc1nc2c(N)nc3cc(-c4ccc(F)nc4)cnc3c2n1CC(C)(C)F`, with 198 to 199 °C.
The result for `CCCCn1nc(C(F)(F)CC)nc1Cc1ccc(-c2ccccc2-c2nnn[nH]2)nc1` reads 98 to 100 °C.
Then `COC(=O)c1ccc(Cn2cc(C=C3C(=O)NC(=O)NC3=O)c3ccccc32)cc1`, with over 300 °C.
Regarding `CCc1ccc(CCOc2ccc([N+](=O)[O-])cc2)nc1`, the melting point fell in the range of 53 to 54 °C.
Then `CN(C)c1ccc(C(=O)Nc2cc(C(=O)NCc3ccccc3)ccn2)cc1`, with 160 to 165 °C.
`C#Cc1ncn2c1CN(C)C(=O)c1cc(F)ccc1-2` had a melting point of 207 to 208 °C.
Then `N#Cc1ccc(Nc2ncc(Cl)c(O)n2)cc1`, with over 300 °C; and `Cc1cc(-c2cc(C(F)(F)F)nn2-c2ccc(S(N)(=O)=O)c(Cl)c2)ccc1-c1cscn1`, with 113 to 115 °C; and `CC(C)(C)OC(=O)Nc1ccc(C(=O)O)c2ccccc12`, with 194 to 195 °C.
`CC1(C)CCC(C)(C)c2cc(CCCSN3C=CC=NC3)c(/C=C/c3ccc(C(=O)O)cc3)cc21` registered a melting point of 177 to 178 °C.
The result for `CCCCc1ncc(/C=C(/C(=O)O)C(CCCC)c2cccs2)n1Cc1ccccc1Cl` (configuration not stated) reads 161 to 163 °C; that for `Cc1cc2c(cc1Cl)NC(=O)CC(c1cccc(-c3ccnc(CNC4CC4)c3)c1)=N2`, 171 °C; that for `COc1cc(-c2ccccn2)cc([N+](=O)[O-])c1OC`, 89 to 90 °C.
Then `CC(C(=O)O)c1ccc2c(c1)CCc1cccnc1O2` (configuration not stated), with 182 to 184 °C; and `O=C(Nc1ccc(OCCCN2CCOCC2)c2ccccc12)c1cc(F)cc(N2CCCCC2)c1`, with 90 to 92 °C.
The result for `COc1ccc(CC#N)c(CC#N)c1` reads 49 to 51 °C.
Consider `CCC(=O)c1ccc(OCCCCCCCc2cc(C)no2)cc1`, for which the melting point came out at 61 °C.
